In patent US20090048301A1 (IMCLONE SYSTEMS INCORPORATED, priority 2003, published 2009):

Columns and labels:
[1] = system: bovine tubulin; test: In vitro tubulin polymerization assay (turbidity at 340 nm); type: biochemical; conditions: 10 μM compound, 30 minute data point, vs 1% DMSO control
How it was run: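 Percent inhibition derives from turbidity (340 nm) at 30 min relative to 1% DMSO controls, read every minute at 37° C. Polymerization mix: 3 mg/ml bovine tubulin, <3% MAPs, in PIPES pH 7 G-PEM with 1 mM GTP, 1 mM MgCl2, 5% glycerol; enhancers also detectable.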

[2] = system: A431, human epidermoid carcinoma cells; test: Cell cycle analysis (FACS), mitotic arrest in G2/M; type: cell-based; conditions: Homo sapiens, A-431, 24 h, read-out: FACS Assay: concentration required to achieve inhibition in FACS assay
How it was run: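 A431 cells, 500,000/well at treatment, exposed to compounds at 0.01–1 μM final (0.1% DMSO) for 24 h. Ethanol-fixed cells RNase-treated (1 μg/ml, 37° C., 15 min), stained with propidium iodide (50 μg/ml, 30 min, RT). DNA ploidy by flow cytometry; mitotic arrest scored as G2/M accumulation.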

[3] = system: A431 human cancer cell line; test: Sulphorhodamine B (SRB) growth inhibition assay; type: cell-based; conditions: A-431, A431 cells, 48 hours, read-out: SRB Assay: μM required to inhibit tumor cell growth by 50% (GI50)
Procedure: The in vitro growth inhibition activity of the compounds was determined by the Sulphorhodamine B assay. (Skehan P, Storeng R, Scudiero D, Monks A, McMahon J, Vistica D, Warren J T, Bokesch H, Kenney S, Boyd M R. New colorimetric cytotoxicity assay for anticancer-drug screening. J Natl Cancer Inst 82, 1107-1112, 1990). Sulphorhodamine B binds to basic amino acids and stains proteins which can be eluted and detected spectrophotometically by measuring absorbance at 515 nm. The absorbance was indicative of the total protein content of the cells fixed to the walls of the plate well at a given time by trichloroacetic acid, which is a measure of the viable cell concentration.
The in vitro growth inhibition activity of the compounds was determined using a Sulphorhodamine B assay. See, Skehan et al., “New colorimetric cytotoxicity assay for anticancer-drug screening,” J. Natl. Cancer Inst., 82, 1107-1112, (1990). Sulphorhodamine B binds to basic amino acids and stains proteins which can be eluted and detected spectrophotometically by measuring absorbance at 515 nm. The absorbance indicates the total protein content of the cells fixed to the walls of the plate well at a given time by trichloroacetic acid, which is a measure of the viable cell concentration.
The reagents used in the assay can be purchased from commercial sources and include Sulphorhodamine B 0.4% (w/v) in 1% (v/v) acetic acid (Sigma Cat#S-1402); trichloroacetic acid 50% (w/v) in deionized water, working solution (Sigma Cat#T-9159); and trizma base (Tris) 10 mM working solution, pH 7.5 (Sigma Cat#T-7693).
The procedure was cared out over four days. In Day 1, the cells were seeded in a seed 10,000 cells/100 μL/well in 96 well plate in duplicates as per template. Also, seed cells in extra plate for time zero (To plate). Thereafter, the cells were incubated for 24 hours at 37° C. with 5% CO2.
On Day 2, the test compound was added to the cells at five log doses from 100 μM to 0.01 μM (Volume of addition=100 μL in 1% DMSO for all compound concentrations, Control treatment=1% DMSO).
The compounds were prepared by weighing the test compounds in 1.5 ml eppendorf tubes and calculating the volume of DMSO to be added to bring the concentration of the compound to 20 mM. Thereafter, a 20 mM stock was made and diluted by four 10 fold dilutions in DMSO to get 2, 0.2, 0.02 and 0.002 mM solutions. Each solution was diluted 100 times (10 μL to 1 ml medium) and a further addition to the culture plate (100 μL) to half the concentration of cells was made. The final well concentration for 20 mM stock was 100 μM and similarly with other test concentrations.
The cells were incubated for 48 hours at 37° C. with 5% CO2 and terminated by adding 50 μL of 50% cold trichloroacetic acid (10% to final). Thereafter, the cells were incubated for one hour at 4° C.
On Day 4, the cells were fixed to the wells by the addition of 50 μL of 50% cold trichloroacetic acid (10% to final) and incubated for 1 hour at 4° C. The supernatant was discarded by force inverting the plate into the sink followed by washing thrice with tap water and the plates are then air-dried. 100 μL SRB (0.4% in 1% acetic acid) was added to each well and the plates were incubated for 10 minutes at room temperature. Unbound dye was removed by force inverting the plate into the sink and washing thrice with 1% acetic acid. Thereafter, the plates were allowed to air dry.
Bound SRB was solubilized with 100 μL of 10 mM Tris, pH 7.4 and the absorbance was measured at a wavelength of 515 nm.
A sample set of calculations was performed as follows. The percentage growth was calculated by T-To/C-To X 100 if T>To and T-To/To X 100 if T<To, wherein T is Test OD (with compound), C is Control OD, To is Time Zero OD (cell growth at the time of drug addition). […]

GI50 [3] | Compound | Tubulin Assay: percent inhibition at 10 μM based on 30 minute data [1] | minimal effective concentration [2]
5.5 µM | COc1cc(Nc2nnc(-c3cccnc3Nc3cc(OC)cc(OC)c3)[nH]2)cc(OC)c1 [Compound 1, (3,5-Dimethoxy-phenyl)-{3-[5-(3,5-dimethoxy-phenylamino)-4H-[1,2,4]triazol-3-yl]-pyridin-2-yl}-amine] | 45% | 0.1 µM
0.7 µM | COc1cccc(Nc2nnc(-c3cccnc3Nc3cc(OC)cc(OC)c3)[nH]2)c1 [Compound 2, (3,5-Dimethoxy-phenyl)-{3-[5-(3-methoxy-phenylamino)-4H-[1,2,4]triazol-3-yl]-pyridin-2-yl}-amine] | 80% | 0.1 µM
2.5 µM | COc1ccc(Nc2nnc(-c3cccnc3Nc3cc(OC)cc(OC)c3)[nH]2)cc1 [Compound 3, (3,5-Dimethoxy-phenyl)-{3-[5-(4-methoxy-phenylamino)-4H-[1,2,4]triazol-3-yl]-pyridin-2-yl}-amine] | 72% | 10 µM
4 µM | COc1cc(Nc2ncccc2-c2nnc(Nc3ccc(C#N)cc3)[nH]2)cc(OC)c1 [Compound 4, 4-{5-[2-(3,5-Dimethoxy-phenylamino)-pyridin-3-yl]-4H-[1,2,4]triazol-3-ylamino}-benzonitrile] | 32% | 10 µM
10 µM | COc1cc(Nc2ncccc2-c2nnc(Nc3cc(OC)ccc3OC)[nH]2)cc(OC)c1 [Compound 5, (3,5-Dimethoxy-phenyl)-{3-[5-(2,5-dimethoxy-phenylamino)-4H-[1,2,4]triazol-3-yl]-pyridin-2-yl}-amine] | 20% | 100 µM
20 µM | COc1cc(Nc2ncccc2-c2nnc(Nc3ccc(N(C)C)cc3)[nH]2)cc(OC)c1 [Compound 6, (3,5-Dimethoxy-phenyl)-{3-[5-(4-dimethylamino-phenylamino)-4H-[1,2,4]triazol-3-yl]-pyridin-2-yl}-amine] | 35% | 10 µM
15 µM | COc1cccc(Nc2nnc(-c3cccnc3Nc3ccc4c(c3)OCO4)[nH]2)c1 [Compound 7, Benzo[1,3]dioxol-5-yl-{3-[5-(3-methoxy-phenylamino)-4H-[1,2,4]triazol-3-yl]-pyridin-2-yl}-amine] | 47% | 10 µM
0.25 µM | CN(C)c1ccc(Nc2nnc(-c3cccnc3Nc3ccc4c(c3)OCO4)[nH]2)cc1 [Compound 11, Benzo[1,3]dioxol-5-yl-{3-[5-(4-dimethylamino-phenylamino)-4H-[1,2,4]triazol-3-yl]-pyridin-2-yl}-amine] | 82% | 10 µM
2 µM | COc1cccc(Nc2nnc(-c3cccnc3NCc3ccc4c(c3)OCO4)[nH]2)c1 [Compound 13, Benzo[1,3]dioxol-5-ylmethyl-{3-[5-(3-methoxy-phenylamino)-4H-[1,2,4]triazol-3-yl]-pyridin-2-yl}-amine] | 80% | 1 µM
2.75 µM | FC(F)(F)c1cccc(-c2nnc(-c3ccccc3NCc3cccnc3)[nH]2)c1 [Compound 130, Pyridin-3-ylmethyl-{2-[5-(3-trifluoromethyl-phenyl)-4H-[1,2,4]triazol-3-yl]-phenyl}-amine] | 47% | –
100 µM | COc1cc(OC)cc(-c2nnc(-c3ccccc3NCc3ccncc3)[nH]2)c1 [Compound 132, {2-[5-(3,5-Dimethoxy-phenyl)-4H-[1,2,4]triazol-3-yl]-phenyl}-pyridin-4-ylmethyl-amine] | 46% | –
0.3 µM | COc1cc(Nc2ncccc2-c2nnc(Nc3ccc(OC)c(OC)c3)o2)cc(OC)c1 [Compound 178, (3,5-Dimethoxy-phenyl)-{3-[5-(3,4-dimethoxy-phenylamino)-[1,3,4]oxadiazol-2-yl]-pyridin-2-yl}-amine] | 40% | –
30 µM | FC(F)(F)Oc1ccc(Nc2nnc(-c3cccnc3NCc3ccc4c(c3)OCO4)o2)cc1 [Compound 179, Benzo[1,3]dioxol-5-ylmethyl-{3-[5-(4-trifluoromethoxy-phenylamino)-[1,3,4]oxadiazol-2-yl]-pyridin-2-yl}-amine] | 28% | –
1.5 µM | COc1ccc(Nc2nnc(-c3cccnc3NCc3ccc4c(c3)OCO4)o2)cc1OC [Compound 180, Benzo[1,3]dioxol-5-ylmethyl-{3-[5-(3,4-dimethoxy-phenylamino)-[1,3,4]oxadiazol-2-yl]-pyridin-2-yl}-amine] | 32% | –
30 µM | COc1cccc(Nc2nnc(-c3cccnc3NCc3cccnc3)o2)c1 [Compound 185, {3-[5-(3-Methoxy-phenylamino)-[1,3,4]oxadiazol-2-yl]-pyridin-2-yl}-pyridin-3-ylmethyl-amine] | 40% | –
100 µM | COc1cccc(Nc2nnc(-c3cccnc3NCc3ccc4c(c3)OCO4)o2)c1 [Compound 186, Benzo[1,3]dioxol-5-ylmethyl-{3-[5-(3-methoxy-phenylamino)-[1,3,4]oxadiazol-2-yl]-pyridin-2-yl}-amine] | 42% | –
80 µM | COc1cc(Nc2nnc(-c3cccnc3Nc3cc(OC)cc(OC)c3)o2)cc(OC)c1 [Compound 187, (3,5-Dimethoxy-phenyl)-{3-[5-(3,5-dimethoxy-phenylamino)-[1,3,4]oxadiazol-2-yl]-pyridin-2-yl}-amine] | 48% | –
15 µM | COc1ccc(Nc2nnc(-c3cccnc3NCc3cccnc3)o2)cc1OC [Compound 190, {3-[5-(3,4-Dimethoxy-phenylamino)-[1,3,4]oxadiazol-2-yl]-pyridin-2-yl}-pyridin-3-ylmethyl-amine] | 56% | –
3 µM | O=C1CCCN1CCCNc1ncccc1-c1nnc(Nc2ccc3c(c2)OCO3)o1 [Compound 194, 1-(3-{3-[5-(Benzo[1,3]dioxol-5-ylamino)-[1,3,4]oxadiazol-2-yl]-pyridin-2-ylamino}-propyl)-pyrrolidin-2-one] | 80% | –
15 µM | c1ccc(-c2nnc(Nc3ccc4c(c3)OCO4)o2)c(NCc2ccncc2)c1 [Compound 225, Benzo[1,3]dioxol-5-yl-(5-{2-[(pyridin-4-ylmethyl)-amino]-phenyl}-[1,3,4]oxadiazol-2-yl)-amine] | 91% | –
